In patent US20160030391A1, “METHODS AND COMPOSITIONS FOR IMPROVING COGNITIVE FUNCTION” (THE JOHNS HOPKINS UNIVERSITY, priority 2013, published 2016):
“Also recorded” adds a separate entry of the source.

Legend:
aged-impaired (AI) rats = test: eight-arm Radial Arm Maze task, one-hour delay, aged-impaired rats; type: in vivo, rat; conditions: for average no. of errors±SEM: one-hour delay; for effective in reducing the number of errors by AI rats in the radial arm maze: levetiracetam on its own
Protocol: The effects of levetiracetam on the spatial memory retention of aged-impaired (AI) rats were assessed in a Radial Arm Maze (RAM) behavioral task using vehicle control and five different dosage levels of levetiracetam (1.25 mg/kg/day, 2.5 mg/kg/day, 5 mg/kg/day, 10 mg/kg/day and 20 mg/kg/day). RAM behavioral tasks were preformed on ten AI rats. All six treatment conditions were tested on all ten rats, as described above for the MWM test. The RAM apparatus used consisted of eight equidistantly-spaced arms. An elevated maze arm (7 cm width x 75 cm length) projected from each facet of an octagonal center platform (30 cm diameter, 51.5 cm height). Clear side walls on the arms were 10 cm high and were angled at 65° to form a trough. A food well (4 cm diameter, 2 cm deep) was located at the distal end of each arm. Froot Loops™ (Kellogg Company) were used as rewards. Blocks constructed of Plexiglas™ (30 cm height x 12 cm width) could be positioned to prevent entry to any arm. Numerous extra maze cues surrounding the apparatus were also provided. The AI rats were initially subjected to a pre-training test (Chappell et al. Neuropharmacology 37: 481-487, 1998). The pre-training test consisted of a habituation phase (4 days), a training phase on the standard win-shift task (18 days) and another training phase (14 days) in which a brief delay was imposed between presentation of a subset of arms designated by the experimenter (e.g., 5 arms available and 3 arms blocked) and completion of the eight-arm win-shift task (i.e., with all eight arms available). In the habituation phase, rats were familiarized to the maze for an 8-minute session on four consecutive days. In each of these sessions food rewards were scattered on the RAM, initially on the center platform and arms and then progressively confined to the arms. After this habituation phase, a standard training protocol was used, in which a food pellet was located at the end of each arm. Rats received one trial each day for 18 days. Each daily trial terminated when all eight food pellets had been obtained or when either 16 choices were made or 15 minutes had elapsed. After completion of this training phase, a second training phase was carried out in which the memory demand was increased by imposing a brief delay during the trial. At the beginning of each trial, three arms of the eight-arm maze were blocked. Rats were allowed to obtain food on the five arms to which access was permitted during this initial ‘information phase’ of the trial. Rats were then removed from the maze for 60 seconds, during which time the barriers on the maze were removed, thus allowing access to all eight arms. Rats were then placed back onto the center platform and allowed to obtain the remaining food rewards during this ‘retention test’ phase of the trial. The identity and configuration of the blocked arms varied across trials. The number of “errors” the AI rats made during the retention test phase was tracked. An error occurred in the trial if the rats entered an arm from which food had already been retrieved in the pre-delay component of the trial, or if it re-visited an arm in the post-delay session that had already been visited. After completion of the pre-training test, rats were subjected to trials with more extended delay intervals, i.e., a one-hour delay, between the information phase (presentation with some blocked arms) and the retention test (presentation of all arms). During the delay interval, rats remained off to the side of the maze in the testing room, on carts in their individual home cages. AI rats were pretreated 30-40 minutes before daily trials with a one-time shot of the following six conditions: 1) vehicle control (0.9% saline solution); 2) levetiracetam (1.25 mg/kg/day); 3) levetiracetam (2.5 mg/kg/day); 4) levetiracetam (5 mg/kg/day); 5) levetiracetam (10 mg/kg/day); 6) levetiracetam (20 mg/kg/day); through intraperitoneal (i.p.) injection. Injections were given every other day with intervening washout days. […]

[1] = system: Dentate Gyrus/CA3 region of aMCI patients; test: fMRI activity in DG/CA3 during lure stimuli correctly identified as similar; type: in vivo, human; conditions: aMCI subjects
[2] = system: reelin in Entorhinal Cortex (EC2); test: reelin in situ hybridization in entorhinal cortex after chronic levetiracetam; type: in vivo, rat; conditions: levetiracetam 10 mg/kg/day, osmotic minipumps, four weeks (28 days), aged-impaired rats
Protocol: Under isoflurane anesthesia, memory-impaired aged rats were implanted subcutaneously in the intrascapular region with osmotic mini-pumps (ALZET, Durect Corporation, Cupertino, Calif.) with levetiracetam (10 mg/kg/day) or saline vehicle for four weeks prior to perfusion. Young rats, which served as controls, received either saline vehicle in mini-pumps or no implantation.
At the end of the 4-week treatment period, rats were anesthetized with isoflurane and perfused transcardiacally with 0.1 M phosphate buffer saline, followed by 4% paraformaldehyde in phosphate buffer. Brains were removed and post-fixed in paraformaldehyde overnight. The brains were then moved into 4% paraformaldehyde in phosphate buffer containing 16% sucrose. […]
Probe templates were synthesized as described in Haberman et al. (2008). […] The final probe was resuspended in RNase-free water and the specific activity was determined by scintillation counter.
In situ hybridization was carried out as described by Haberman et al., (2008). […] Slides were dried overnight, exposed to a phosphoimager screen, and quantified by using ImageQuant (GE Healthcare). Digital images were acquired of entorhinal cortical sections from the same levels for all animals and the subregion of interest was outlined and quantified. […]

Structure (SMILES): CC[C@@H](C(N)=O)N1CCCC1=O [levetiracetam, (2S)-2-(2-oxopyrrolidin-1-yl)butanamide]
- effective doses of levetiracetam used in the animal model (aged-impaired (AI) rats; given acutely, AI rats): 5 to 10 mg/kg
- average no. of errors±SEM (aged-impaired (AI) rats; levetiracetam 5 mg/kg/day i.p.): 0.75±0.32
- average no. of errors±SEM (aged-impaired (AI) rats; levetiracetam 10 mg/kg/day i.p.): 0.80±0.27
- performance of AI rats in the radial maze task (aged-impaired (AI) rats; levetiracetam 20 mg/kg): fails to improve the performance
- effective in reducing the number of errors by AI rats in the radial arm maze (aged-impaired (AI) rats; 1.25 mg/kg): not
- effective in reducing the number of errors by AI rats in the radial arm maze (aged-impaired (AI) rats; 2.5 mg/kg): not
- effective in reducing the number of errors by AI rats in the radial arm maze (aged-impaired (AI) rats; 5-10 mg/kg): effective
- DG/CA3 hyperactivity (fMRI) ([1]; levetiracetam 62.5 mg BID for two weeks): does not significantly reduce
- DG/CA3 activity during successful memory judgments (fMRI) ([1]; levetiracetam 125 mg twice a day for two weeks vs placebo): reduces DG/CA3 hyper-activity
- DG/CA3 hyperactivity (fMRI) ([1]; levetiracetam 250 mg BID for two weeks): does not significantly reduce
- levels of reelin in Entorhinal Cortex (EC2) (reelin mRNA expression) [2]: significantly increased; also recorded: restores
